≈ marks a conversion by molar mass, not a printed value.
System: measles virus
Test: microbe, parasite or virus in culture
Conditions: Measles morbillivirus, 24 h

SMILES | MIC50 [µM]
Cc1cnc(-n2nc(OC(C)C)c(Oc3c(F)cccc3F)c2C)nc1 [example 47, 2-(4-(2,6-difluorophenoxy)-3-isopropoxy-5-methyl-1H-pyrazol-1-yl)-5-methylpyrimidine] | 0.0005 to 0.05 (≈ 0.00018 to 0.018 µg/mL)
Cc1c(Oc2c(F)cccc2F)c(OC(C)C)nn1-c1cnc(Br)cn1 [example 48, 2-bromo-5-(4-(2,6-difluorophenoxy)-3-isopropoxy-5-methyl-1H-pyrazol-1-yl)pyrazine] | 0.5 to 5 (≈ 0.213 to 2.13 µg/mL)
CCOc1nn(-c2ccc(C3CC3)cn2)c(C)c1Oc1cccc(Cl)c1Cl [example 49, 5-cyclopropyl-2-(4-(2,3-dichlorophenoxy)-3-ethoxy-5-methyl-1H-pyrazol-1-yl)pyridine] | 0.0005 to 0.05 (≈ 0.000202 to 0.0202 µg/mL)
CCc1cnc(-n2nc(OC(C)C)c(Oc3ccccc3F)c2C)nc1 [example 50, 5-ethyl-2-(4-(2-fluorophenoxy)-3-isopropoxy-5-methyl-1H-pyrazol-1-yl)pyrimidine] | 0.0005 to 0.05 (≈ 0.000178 to 0.0178 µg/mL)
Cc1c(Oc2ccccc2F)c(OC(C)C)nn1-c1ncc(C2CC2)cn1 [example 51, 5-cyclopropyl-2-(4-(2-fluorophenoxy)-3-isopropoxy-5-methyl-1H-pyrazol-1-yl)pyrimidine] | 0.0005 to 0.05 (≈ 0.000184 to 0.0184 µg/mL)
Cc1c(Oc2ccccc2F)c(OC(C)C)nn1-c1ncc(C2CC2)cc1C#N [example 52, 5-cyclopropyl-2-(4-(2-fluorophenoxy)-3-isopropoxy-5-methyl-1H-pyrazol-1-yl)nicotinonitrile] | 0.05 to 0.5 (≈ 0.0196 to 0.196 µg/mL)
Cc1c(Oc2ccccc2F)c(OC(C)C)nn1-c1ncc(C2CC2)cc1F [example 53, 5-cyclopropyl-3-fluoro-2-(4-(2-fluorophenoxy)-3-isopropoxy-5-methyl-1H-pyrazol-1-yl)pyridine] | 0.05 to 0.5 (≈ 0.0193 to 0.193 µg/mL)
CCc1cnc(-n2nc(OC(C)C)c(Oc3cccc(F)c3)c2C)nc1 [example 54, 5-ethyl-2-(4-(3-fluorophenoxy)-3-isopropoxy-5-methyl-1H-pyrazol-1-yl)pyrimidine] | 0.05 to 0.5 (≈ 0.0178 to 0.178 µg/mL)
CCOc1nn(-c2ccc(C3CC3)cn2)c(C)c1Oc1ccccc1Br [example 55, 2-(4-(2-bromophenoxy)-3-ethoxy-5-methyl-1H-pyrazol-1-yl)-5-cyclopropylpyridine] | 0.0005 to 0.05 (≈ 0.000207 to 0.0207 µg/mL)
CCOc1nn(-c2ccc(C3CC3)cn2)c(C)c1Oc1ccccc1C(F)(F)F [example 56, 5-cyclopropyl-2-(3-ethoxy-5-methyl-4-(2-(trifluoromethyl)phenoxy)-1H-pyrazol-1-yl)pyridine] | 0.05 to 0.5 (≈ 0.0202 to 0.202 µg/mL)
CCOc1nn(-c2ncc(CC)cn2)c(C)c1Oc1cccc(C(F)(F)F)c1 [example 57, 2-(3-ethoxy-5-methyl-4-(3-(trifluoromethyl)phenoxy)-1H-pyrazol-1-yl)-5-ethylpyrimidine] | 0.05 to 0.5 (≈ 0.0196 to 0.196 µg/mL)
Cc1c(Oc2c(F)cccc2F)c(OC(C)C)nn1-c1ncc(Br)cn1 [example 58, 5-bromo-2-(4-(2,6-difluorophenoxy)-3-isopropoxy-5-methyl-1H-pyrazol-1-yl)pyrimidine] | 0.0005 to 0.05 (≈ 0.000213 to 0.0213 µg/mL)
Cc1c(Oc2c(F)cccc2F)c(OC(C)C)nn1-c1ccc(Br)cn1 [example 59, 5-bromo-2-(4-(2,6-difluorophenoxy)-3-isopropoxy-5-methyl-1H-pyrazol-1-yl)pyridine] | 0.05 to 0.5 (≈ 0.0212 to 0.212 µg/mL)
Cc1nn(-c2ccc(Br)cn2)c(OC(C)C)c1Oc1c(F)cccc1F [example 60, 5-bromo-2-(4-(2,6-difluorophenoxy)-5-isopropoxy-3-methyl-1H-pyrazol-1-yl)pyridine] | > 5
CCc1cnc(-n2nc(OC(C)C)c(Oc3ccc(F)cc3F)c2C)nc1 [example 61, 2-(4-(2,4-difluorophenoxy)-3-isopropoxy-5-methyl-1H-pyrazol-1-yl)-5-ethylpyrimidine] | 0.0005 to 0.05 (≈ 0.000187 to 0.0187 µg/mL)
COc1cnc(-n2nc(OC(C)C)c(Oc3c(F)cccc3F)c2C)nc1 [example 62, 2-(4-(2,6-difluorophenoxy)-3-isopropoxy-5-methyl-1H-pyrazol-1-yl)-5-methoxypyrimidine] | 0.0005 to 0.05 (≈ 0.000188 to 0.0188 µg/mL)
CCOc1nn(-c2ccc(C3CC3)cn2)c(C)c1Oc1ccccc1Cl [example 63, 2-(4-(2-chlorophenoxy)-3-ethoxy-5-methyl-1H-pyrazol-1-yl)-5-cyclopropylpyridine] | 0.0005 to 0.05 (≈ 0.000185 to 0.0185 µg/mL)
CCOc1nn(-c2ncc(CC)cn2)c(C)c1Oc1cc(Cl)ccc1Cl [example 64, 2-(4-(2,5-dichlorophenoxy)-3-ethoxy-5-methyl-1H-pyrazol-1-yl)-5-ethylpyrimidine] | 0.0005 to 0.05 (≈ 0.000197 to 0.0197 µg/mL)
CC(C)Oc1nn(-c2ccc(C3CC3)cn2)cc1Oc1ccccc1F [example 65, 5-cyclopropyl-2-(4-(2-fluorophenoxy)-3-isopropoxy-1H-pyrazol-1-yl)pyridine] | 0.0005 to 0.05 (≈ 0.000177 to 0.0177 µg/mL)
CC(C)Oc1nn(-c2ncc(C3CC3)cc2F)cc1Oc1ccccc1F [example 66, 5-cyclopropyl-3-fluoro-2-(4-(2-fluorophenoxy)-3-isopropoxy-1H-pyrazol-1-yl)pyridine] | 0.0005 to 0.05 (≈ 0.000186 to 0.0186 µg/mL)
CCOc1nn(-c2ccc(C3CC3)cn2)c(C)c1Oc1ccccc1F [example 68, 5-cyclopropyl-2-(3-ethoxy-4-(2-fluorophenoxy)-5-methyl-1H-pyrazol-1-yl)pyridine] | 0.0005 to 0.05 (≈ 0.000177 to 0.0177 µg/mL)
Cc1c(Oc2ccccc2F)c(OC(C)C)nn1-c1ccc(C2CC2)cn1 [example 69, 5-cyclopropyl-2-(4-(2-fluorophenoxy)-3-isopropoxy-5-methyl-1H-pyrazol-1-yl)pyridine] | 0.0005 to 0.05 (≈ 0.000184 to 0.0184 µg/mL)

SMILES | MIC50 [µM]
CC(C)Oc1nn(-c2ncc(C3CC3)cc2F)cc1Oc1ccccc1 [example 70, 5-cyclopropyl-3-fluoro-2-(3-isopropoxy-4-phenoxy-1H-pyrazol-1-yl)pyridine] | 0.0005 to 0.05 (≈ 0.000177 to 0.0177 µg/mL)
CC(C)Oc1nn(-c2ccc(C3CC3)cn2)cc1Oc1ccccc1 [example 71, 5-cyclopropyl-2-(3-isopropoxy-4-phenoxy-1H-pyrazol-1-yl)pyridine] | 0.05 to 0.5 (≈ 0.0168 to 0.168 µg/mL)
CCOc1nn(-c2ncc(CC)cn2)c(C)c1Oc1ccccc1 [example 72, 2-(3-ethoxy-5-methyl-4-phenoxy-1H-pyrazol-1-yl)-5-ethylpyrimidine] | 0.5 to 5 (≈ 0.162 to 1.62 µg/mL)
CCOc1nn(-c2ncc(CC)cn2)c(C)c1Oc1ccccc1F [example 73, 2-(3-ethoxy-4-(2-fluorophenoxy)-5-methyl-1H-pyrazol-1-yl)-5-ethylpyrimidine] | 0.05 to 0.5 (≈ 0.0171 to 0.171 µg/mL)
Cc1c(Oc2c(F)cccc2F)c(OC(C)C)nn1-c1ncccn1 [example 74, 2-(4-(2,6-difluorophenoxy)-3-isopropoxy-5-methyl-1H-pyrazol-1-yl)pyrimidine] | 0.5 to 5 (≈ 0.173 to 1.73 µg/mL)
CC(C)Oc1nn(-c2ncc(C3CC3)cc2C#N)cc1Oc1ccccc1 [example 75, 5-cyclopropyl-2-(3-isopropoxy-4-phenoxy-1H-pyrazol-1-yl)nicotinonitrile] | > 5
CCc1cnc(-n2nc(OC(C)C)c(Oc3ccc(F)cc3)c2C)nc1 [example 76, 5-ethyl-2-(4-(4-fluorophenoxy)-3-isopropoxy-5-methyl-1H-pyrazol-1-yl)pyrimidine] | 0.05 to 0.5 (≈ 0.0178 to 0.178 µg/mL)
CCc1cnc(-n2nc(OC(C)C)c(Oc3cccc(F)c3F)c2C)nc1 [example 77, 2-(4-(2,3-difluorophenoxy)-3-isopropoxy-5-methyl-1H-pyrazol-1-yl)-5-ethylpyrimidine] | 0.05 to 0.5 (≈ 0.0187 to 0.187 µg/mL)
CCOc1nn(-c2ncc(CC)cn2)c(C)c1Oc1ccccc1Cl [example 78, 2-(4-(2-chlorophenoxy)-3-ethoxy-5-methyl-1H-pyrazol-1-yl)-5-ethylpyrimidine] | 0.05 to 0.5 (≈ 0.0179 to 0.179 µg/mL)
CCOc1nn(-c2ncc(CC)cn2)c(C)c1Oc1cc(Cl)cc(Cl)c1 [example 79, 2-(4-(3,5-dichlorophenoxy)-3-ethoxy-5-methyl-1H-pyrazol-1-yl)-5-ethylpyrimidine] | 0.5 to 5 (≈ 0.197 to 1.97 µg/mL)
CCOc1nn(-c2ncc(CC)cn2)c(C)c1Oc1cccc(Cl)c1Cl [example 80, 2-(4-(2,3-dichlorophenoxy)-3-ethoxy-5-methyl-1H-pyrazol-1-yl)-5-ethylpyrimidine] | 0.05 to 0.5 (≈ 0.0197 to 0.197 µg/mL)
CCOc1nn(-c2ncc(CC)cn2)c(C)c1Oc1ccccc1C(F)(F)F [example 82, 2-(3-ethoxy-5-methyl-4-(2-(trifluoromethyl)phenoxy)-1H-pyrazol-1-yl)-5-ethylpyrimidine] | 0.5 to 5 (≈ 0.196 to 1.96 µg/mL)
CCOc1nn(-c2ncc(CC)cn2)c(C)c1Oc1ccc(C(F)(F)F)cc1 [example 83, 2-(3-ethoxy-5-methyl-4-(4-(trifluoromethyl)phenoxy)-1H-pyrazol-1-yl)-5-ethylpyrimidine] | > 5
Cc1c(Oc2c(F)cccc2F)c(OC(C)C)nn1-c1ccc(C(C)(C)O)cn1 [example 84, 2-(6-(4-(2,6-difluorophenoxy)-3-isopropoxy-5-methyl-1H-pyrazol-1-yl)pyridin-3-yl)propan-2-ol] | 0.05 to 0.5 (≈ 0.0202 to 0.202 µg/mL)
Cc1cc(Br)cnc1-n1nc(OC(C)C)c(Oc2c(F)cccc2F)c1C [example 85, 5-bromo-2-(4-(2,6-difluorophenoxy)-3-isopropoxy-5-methyl-1H-pyrazol-1-yl)-3-methylpyridine] | 0.5 to 5 (≈ 0.219 to 2.19 µg/mL)
Cc1c(Oc2c(F)cccc2F)c(OC(C)C)nn1-c1ncc(Br)cc1F [example 86, 5-bromo-2-(4-(2,6-difluorophenoxy)-3-isopropoxy-5-methyl-1H-pyrazol-1-yl)-3-fluoropyridine] | 0.05 to 0.5 (≈ 0.0221 to 0.221 µg/mL)
CC(=O)c1ccc(-n2nc(OC(C)C)c(Oc3c(F)cccc3F)c2C)nc1 [example 87, 1-(6-(4-(2,6-difluorophenoxy)-3-isopropoxy-5-methyl-1H-pyrazol-1-yl)pyridin-3-yl)ethanone] | 0.05 to 0.5 (≈ 0.0194 to 0.194 µg/mL)
CCOc1nn(-c2ccc(C(C)=O)cn2)c(C)c1Cc1ccccc1 [example 88, 1-(6-(4-benzyl-3-ethoxy-5-methyl-1H-pyrazol-1-yl)pyridin-3-yl)ethanone] | > 5
Cc1c(Cc2ccccc2)c(OC(C)C)nn1-c1ncccc1C#N [example 89, 2-(4-benzyl-3-isopropoxy-5-methyl-1H-pyrazol-1-yl)nicotinonitrile] | 0.5 to 5 (≈ 0.166 to 1.66 µg/mL)
Cc1c(Cc2ccccc2F)c(OC(C)C)nn1-c1ccc(C2CC2)cn1 [example 90, 5-cyclopropyl-2-(4-(2-fluorobenzyl)-3-isopropoxy-5-methyl-1H-pyrazol-1-yl)pyridine] | 0.05 to 0.5 (≈ 0.0183 to 0.183 µg/mL)
Cc1c(Oc2c(F)cccc2F)c(OC(C)C)nn1-c1ccc(C(C)(F)F)cn1 [example 91, 5-(1,1-difluoroethyl)-2-(4-(2,6-difluorophenoxy)-3-isopropoxy-5-methyl-1H-pyrazol-1-yl)pyridine] | 0.05 to 0.5 (≈ 0.0205 to 0.205 µg/mL)
CCOc1nn(-c2ccc(C3CC3)cn2)c(C)c1Oc1ccccc1 [example 92, 5-cyclopropyl-2-(3-ethoxy-5-methyl-4-phenoxy-1H-pyrazol-1-yl)pyridine] | 0.05 to 0.5 (≈ 0.0168 to 0.168 µg/mL)

Source: patent publication EP2929883A1, “Pyrazole derivatives as dihydroorotate dehydrogenase (DHODH) inhibitors” (INSTITUT PASTEUR, priority 2014, dated 2015)
